US8222422B2, “Crystal of benzimidazole compound” (Takeda Pharmaceutical Company Limited, priority 2008, dated 2012)
Values after ≈ are worked out from the molar mass of the structure shown.

Columns and labels:
Assay type in all cases: physicochemical
[1] = Stability Test (residual rate of the crystal after preservation, by HPLC); conditions: crystals in a brown glass bottle, preserved at 40° C. for 2 weeks
Experimental: Residual rate was measured by HPLC (YMC-Pack AQ-302 ODS 4.6 mm i.d.×150 mm, temperature: about 25° C., mobile phase: (A) water (B) acetonitrile:water:triethylamine=160:40:1, gradient program, detection wavelength: 285 nm).

[2] = Solubility Test, aqueous solution with pH 6.9; conditions: aqueous buffer, thermodynamic from solid, 8.87 mg almost dissolved when 35 mL was added
Experimental: To the crystals (8.87 mg) obtained in Example 6 was gradually added dropwise an aqueous solution with pH 6.9.

[3] = Solubility Test, aqueous solution with pH 9.2; conditions: aqueous buffer, thermodynamic from solid, 10.75 mg almost dissolved when 13.5 mL was added
Experimental: To the crystals (10.75 mg) obtained in Example 6 was gradually added dropwise an aqueous solution with pH 9.2. The crystals were almost dissolved at the time point when 13.5 mL was added (solubility: 0.80 mg/mL).

- residual rate [1]: 100.7%
- solubility [2]: 0.25 mg/mL (≈ 677 µM)
- solubility [3]: 0.8 mg/mL (≈ 2170 µM)
Compound: Cc1c(OCC(F)(F)F)ccnc1C[S@@+]([O-])c1nc2ccccc2[nH]1 [Example 6, (R)-2-[[[3-methyl-4-(2,2,2-trifluoroethoxy)-2-pyridyl]methyl]sulfinyl]benzimidazole]
